The nature of this data set: RP, Thermo Scientific Hypersil GOLD, 1.9 µm, 40 °C, 0.4 mL/min; A: water + 0.1% formic acid, pH 3; B: acetonitrile + 0.1% formic acid, pH 3; gradient (min/%B) 0/0 1/0 11/100 13/100 14/0 16/0. Particulars: stereoisomer not certain.

Counter-ions that a name gives are not always drawn.

Consider 82 compounds from the RepoRT retention time repository.

Take `CC(=O)C1(O)CCC2C3CCC4=CC(=O)CCC4(C)C3CCC21C` (configuration not stated) [17a-Hydroxyprogesterone]: the LC retention time is 8.44 min. Under `CCCCCCCCC=CCCCCCCCC(=O)OCC(O)COP(=O)([O-])OCC[N+](C)(C)C` (configuration not stated) [18-1_LysoPC] stands 0.61 min; under `CC(=O)C1(O)CCC2C3CCC4=CC(=O)CCC4(C)C3C(O)CC21C` (configuration not stated) [21-Deoxycortisol], 7.35 min. Under `CC(CCCC(C)(C)O)C1CCC2C3CC=C4CC(O)CCC4(C)C3CCC12C` (configuration not stated) [25-HYDROXYCHOLESTEROL] stands 11.9 min. As for `NCCP(=O)(O)O` [(2-AMINOETHYL)PHOSPHONATE], the LC retention time is 0.63 min.

With `C/C(=C\C(=O)O)CC(=O)O` [(E)-3-Methylglutaconic acid], the LC retention time turned out to be 4.1 min. `C=C(C)C1CC=C(C)C(=O)C1` [(R)-(-)-Carvone]: the LC retention time worked out at 8.19 min.

In the case of `C=C(C)C1CC=C(CO)CC1` [(S)-(-)-Perillyl alcohol], the LC retention time was 8.07 min. Under `Nc1ncnc2nc[nH]c12` [ADENINE] stands 0.74 min; under `Nc1ncnc2c1ncn2C1OC(CO)C2OP(=O)(O)OC21` (configuration not stated) [ADENOSINE 2'-3'-CYCLIC PHOSPHATE], 0.83 min; under `Nc1ncnc2c1ncn2C1OC(COP(=O)(O)O)C(O)C1O` (configuration not stated) [ADENOSINE-MONOPHOSPHATE], 0.77 min. With `Nc1ncnc2c1ncn2C1OC(CO)C(O)C1O` (configuration not stated) [ADENOSINE], the LC retention time was 0.86 min. Regarding `Nc1ncnc2c1ncn2C1OC(COP(=O)(O)OP(=O)(O)OC2OC(CO)C(O)C(O)C2O)C(O)C1O` (configuration not stated) [ADP-GLUCOSE], the LC retention time worked out at 1.27 min.

On to `NCCCCN=C(N)N` [AGMATINE SULFATE], for which the LC retention time came out at 0.54 min. As for `NC(=O)c1ncn(C2OC(COP(=O)(O)O)C(O)C2O)c1N` (configuration not stated) [AICAR], the figure is 0.76 min; as for `NC(=O)NC1NC(=O)NC1=O` (configuration not stated) [ALLANTOIN], 0.67 min.

Turning to `CC(C)(O)C(=O)O` [ALPHA-HYDROXYISOBUTYRATE], the LC retention time turned out to be 1.62 min. Under `NC(CCCC(=O)O)C(=O)O` (configuration not stated) [AMINOADIPATE] stands 0.67 min. As to `CC(CN)C(=O)O` (configuration not stated) [AMINOISOBUTANOATE], the LC retention time came to 0.67 min.

Take `Nc1ccccc1S(=O)(=O)O` [ANILINE-2-SULFONATE]: the LC retention time was 1.42 min. For the compound `Cn1cncc1CC(NC(=O)CCN)C(=O)O` (configuration not stated) [ANSERINE], the LC retention time was determined as 0.57 min. As for `Nc1ccccc1C(=O)O` [ANTHRANILATE], the figure is 5.29 min; as for `CCCCCCCCCCCCCCCCCCCC(=O)O` [ARACHIDATE], 13.5 min; as for `O=C1OC(C(O)CO)C(O)=C1O` (configuration not stated) [ASCORBATE], 0.78 min. On to `O=C(O)CCCCCCCC(=O)O` [AZELATE], for which the LC retention time amounted to 6.12 min. For the compound `CC(=O)OCC(=O)O` [Acetoxyacetic acid], the LC retention time was 1.93 min. As for `Nc1ncnc2c1ncn2C1OC(CO)C(OP(=O)(O)O)C1O` (configuration not stated) [Adenosine 3'-monophosphate free acid], the LC retention time was determined as 0.82 min.

Consider `Nc1ccc(C(=O)NCC(=O)O)cc1` [Aminohippuric acid], for which the LC retention time amounted to 1.77 min. `NCc1ccccc1` [BENZYLAMINE]: the LC retention time came to 3.59 min. With `NCCC(=O)O` [BETA-ALANINE], the LC retention time was found to be 0.62 min.

For the compound `CC1=C(/C=C/C(C)=C/C=C/C(C)=C/C=C/C=C(C)/C=C/C=C(C)/C=C/C2=C(C)CCCC2(C)C)C(C)(C)CCC1` [BETA-CAROTENE], the LC retention time was 9.23 min. With `O=P(O)(O)OC(CO)CO` [BETA-GLYCEROPHOSPHATE], the LC retention time amounted to 0.67 min. Under `NC(=O)c1ccc[n+](C2OC(COP(=O)(O)OP(=O)(O)OCC3OC(n4cnc5c(N)ncnc54)C(O)C3O)C(O)C2O)c1` (stereo not drawn) [BETA-NICOTINAMIDE ADENINE DINUCLEOTIDE] stands 0.78 min.

On to `C[N+](C)(C)CC(=O)[O-]` [BETAINE], for which the LC retention time was found to be 0.65 min. As for `C=CC1=C(C)C(=Cc2[nH]c(Cc3[nH]c(C=C4NC(=O)C(C)=C4C=C)c(C)c3CCC(=O)O)c(CCC(=O)O)c2C)NC1=O` [BILIRUBIN], the figure is 12.6 min; as for `C=CC1=C(C)C(C=c2[nH]c(=Cc3[nH]c(C=C4NC(=O)C(C)=C4C=C)c(C)c3CCC(=O)O)c(CCC(=O)O)c2C)=NC1=O` [BILIVERDIN], 7.99 min; as for `O=C(O)CCCCC1SCC2NC(=O)NC21` (configuration not stated) [BIOTIN], 5.15 min.

In the case of `CCCCC(CC)COC(=O)c1ccccc1C(=O)OCC(CC)CCCC` (configuration not stated) [BIS(2-ETHYLHEXYL)PHTHALATE], the LC retention time was 13 min. Under `C=C(C)C1CCC2(C(=O)O)CCC3(C)C(CCC4C5(C)CCC(O)C(C)(C)C5CCC43C)C12` (configuration not stated) [Betulinic acid] stands 11.2 min; under `CCCCCCCCCCCCCCC=COCC(O)COP(=O)([O-])OCC[N+](C)(C)C` (configuration not stated) [C16_PlasmLPC], 10.5 min.

Consider `CCCCCCCCCCCCCCCCCCOCC(O)COP(=O)([O-])OCC[N+](C)(C)C` (configuration not stated) [C18_LysoPAF], for which the LC retention time is 10.4 min. As for `NCCCCCN` [CADAVERINE], the LC retention time worked out at 0.55 min. Under `Cn1c(=O)c2c(ncn2C)n(C)c1=O` [CAFFEINE] stands 4.85 min; under `NCCC(=O)NC(Cc1cnc[nH]1)C(=O)O` (configuration not stated) [CARNOSINE], 0.59 min. Take `NCCOP(=O)(O)OP(=O)(O)OCC1OC(n2ccc(N)nc2=O)C(O)C1O` (configuration not stated) [CDP-ETHANOLAMINE]: the LC retention time is 0.64 min. As for `CC(CCC(=O)O)C1CCC2C3C(O)CC4CC(O)CCC4(C)C3CCC12C` (configuration not stated) [CHENODEOXYCHOLATE], the figure is 9.15 min; as for `CC(CCC(=O)O)C1CCC2C3C(O)CC4CC(O)CCC4(C)C3CC(O)C12C` (configuration not stated) [CHOLATE], 8.17 min. In the case of `C[N+](C)(C)CCO` [CHOLINE], the LC retention time stood at 0.62 min. Take `C[N+](C)(C)CCOP(=O)(O)OP(=O)([O-])OCC1OC(n2ccc(N)nc2=O)C(O)C1O` (configuration not stated) [CITICOLINE]: the LC retention time is 0.64 min. As to `CC(O)(CC(=O)O)C(=O)O` (configuration not stated) [CITRAMALATE], the LC retention time was found to be 1.23 min. On to `O=C(O)CC(O)(CC(=O)O)C(=O)O` [CITRATE], for which the LC retention time was 0.9 min. For `NC(=O)NCCCC(N)C(=O)O` (configuration not stated) [CITRULLINE], the LC retention time amounted to 0.65 min.

Take `CC12CCC(=O)C=C1CCC1C2CCC2(C)C1CCC2(O)C(=O)CO` (configuration not stated) [CORTEXOLONE]: the LC retention time worked out at 7.48 min. Regarding `CC12CCC(=O)C=C1CCC1C2C(O)CC2(C)C(C(=O)CO)CCC12` (configuration not stated) [CORTICOSTERONE], the LC retention time was found to be 7.47 min. As for `CC(=O)OCC(=O)C1(O)CCC2C3CCC4=CC(=O)CCC4(C)C3C(O)CC21C` (configuration not stated) [CORTISOL 21-ACETATE], the figure is 7.67 min; as for `CC12CCC(=O)C=C1CCC1C2C(O)CC2(C)C1CCC2(O)C(=O)CO` (configuration not stated) [CORTISOL], 6.73 min. Consider `CC12CCC(=O)C=C1CCC1C2C(=O)CC2(C)C1CCC2(O)C(=O)CO` (configuration not stated) [CORTISONE], for which the LC retention time is 6.81 min.

On to `CN(CC(=O)O)C(=N)N` [CREATINE], for which the LC retention time was 0.66 min. Under `CN1CC(=O)NC1=N` [CREATININE] stands 0.62 min. Under `Nc1nc2c(ncn2C2OC3COP(=O)(O)OC3C2O)c(=O)[nH]1` (configuration not stated) [CYCLIC GMP] stands 1.29 min.

Regarding `NC(CS)C(=O)NCC(=O)O` (configuration not stated) [CYS-GLY], the LC retention time amounted to 0.59 min. For the compound `NC(CCSCC(N)C(=O)O)C(=O)O` (configuration not stated) [CYSTATHIONINE], the LC retention time worked out at 0.61 min. Under `NC(CS(=O)(=O)O)C(=O)O` (configuration not stated) [CYSTEATE] stands 0.65 min; under `NC(CSSCC(N)C(=O)O)C(=O)O` (configuration not stated) [CYSTINE], 0.61 min.

`Nc1ccn(C2OC(CO)C3OP(=O)(O)OC32)c(=O)n1` (configuration not stated) [CYTIDINE 2'-3'-CYCLIC PHOSPHATE]: the LC retention time is 0.7 min. Turning to `Nc1ccn(C2OC(COP(=O)(O)OP(=O)(O)O)C(O)C2O)c(=O)n1` (configuration not stated) [CYTIDINE DIPHOSPHATE], the LC retention time worked out at 1.2 min. With `Nc1ccn(C2OC(CO)C(O)C2O)c(=O)n1` (configuration not stated) [CYTIDINE], the LC retention time stood at 0.78 min.

As for `Nc1ccnc(=O)[nH]1` [CYTOSINE], the LC retention time was found to be 0.65 min.

As to `CN1C(=O)CCC1c1cccnc1` (configuration not stated) [Cotinine], the LC retention time came to 0.83 min. Under `O=c1ccc2ccccc2o1` [Coumarin] stands 6.42 min. Under `O=C[C@H](O)[C@H](O)CO` [D-(-)-Erythrose] stands 0.7 min; under `O=CC(O)C1OC(=O)C(O)C1O` [D-GLUCURONOLACTONE], 0.71 min. Under `O=P(O)(O)OCC1OC(O)C(O)C1O` [D-RIBOSE 5-PHOSPHATE] stands 0.65 min. Take `Nc1ncnc2c1ncn2C1CC(O)C(COP(=O)(O)O)O1` (configuration not stated) [DEOXYADENOSINE MONOPHOSPHATE]: the LC retention time was determined as 0.84 min.

With `Nc1ncnc2c1ncn2C1CC(O)C(CO)O1` (configuration not stated) [DEOXYADENOSINE], the LC retention time turned out to be 1.09 min. Under `C[N+](C)(C)CCCC(=O)O` [DEOXYCARNITINE] stands 0.67 min; under `CC(=O)OCC(=O)C1CCC2C3CCC4=CC(=O)CCC4(C)C3CCC12C` (configuration not stated) [DEOXYCORTICOSTERONE ACETATE], 9.25 min; under `Nc1ccn(C2CC(O)C(COP(=O)(O)O)O2)c(=O)n1` (configuration not stated) [DEOXYCYTIDINE MONOPHOSPHATE], 0.74 min. Under `Nc1ccn(C2CC(O)C(COP(=O)([O-])OP(=O)([O-])[O-])O2)c(=O)n1` (configuration not stated) [DEOXYCYTIDINE-DIPHOSPHATE] stands 1.13 min; under `Nc1ccn(C2CC(O)C(CO)O2)c(=O)n1` (configuration not stated) [DEOXYCYTIDINE], 0.83 min.

On to `Nc1nc2c(ncn2C2CC(O)C(CO)O2)c(=O)[nH]1` (configuration not stated) [DEOXYGUANOSINE], for which the LC retention time turned out to be 1.77 min. As for `O=c1ccn(C2CC(O)C(COP(=O)(O)O)O2)c(=O)[nH]1` (configuration not stated) [DEOXYURIDINE-MONOPHOSPHATE], the figure is 0.82 min.
